Results reported in ChEMBL document CHEMBL1148720, “Extensive SAR and computational studies of 3-{4-[(benzylmethylamino)methyl]phenyl}-6,7-dimethoxy-2H-2-chromenone (AP2238) derivatives” (J Med Chem, 2007).

Experiments:
Acetylcholinesterase [1] = biological target: T1, Acetylcholinesterase (Homo sapiens, UniProt P22303); test: Inhibition of human recombinant AChE
Acetylcholinesterase [2] = biological target: T1, Acetylcholinesterase; test: Inhibition of human AChE-mediated beta amyloid 1-40 aggregation at 100 uM
Cholinesterase = Cholinesterase (Homo sapiens, UniProt P06276); test: Inhibition of human recombinant BChE
Chain of Cholinesterase (P06276 whole entry): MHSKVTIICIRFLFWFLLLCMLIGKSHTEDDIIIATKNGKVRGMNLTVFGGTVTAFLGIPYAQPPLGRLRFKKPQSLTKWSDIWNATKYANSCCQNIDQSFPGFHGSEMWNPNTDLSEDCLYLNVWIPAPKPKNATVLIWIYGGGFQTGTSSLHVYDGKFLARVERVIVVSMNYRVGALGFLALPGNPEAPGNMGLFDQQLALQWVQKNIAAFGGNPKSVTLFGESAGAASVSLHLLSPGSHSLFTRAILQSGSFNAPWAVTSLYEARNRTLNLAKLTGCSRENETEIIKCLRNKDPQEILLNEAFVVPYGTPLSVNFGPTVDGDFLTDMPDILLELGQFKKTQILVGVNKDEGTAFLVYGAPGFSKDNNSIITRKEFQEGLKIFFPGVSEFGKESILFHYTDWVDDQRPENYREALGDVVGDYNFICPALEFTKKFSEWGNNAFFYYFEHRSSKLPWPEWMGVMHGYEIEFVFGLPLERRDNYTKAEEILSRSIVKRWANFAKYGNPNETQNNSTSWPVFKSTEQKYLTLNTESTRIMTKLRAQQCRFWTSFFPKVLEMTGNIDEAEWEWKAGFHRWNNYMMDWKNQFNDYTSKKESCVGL

T1 sequence (P22303 whole entry): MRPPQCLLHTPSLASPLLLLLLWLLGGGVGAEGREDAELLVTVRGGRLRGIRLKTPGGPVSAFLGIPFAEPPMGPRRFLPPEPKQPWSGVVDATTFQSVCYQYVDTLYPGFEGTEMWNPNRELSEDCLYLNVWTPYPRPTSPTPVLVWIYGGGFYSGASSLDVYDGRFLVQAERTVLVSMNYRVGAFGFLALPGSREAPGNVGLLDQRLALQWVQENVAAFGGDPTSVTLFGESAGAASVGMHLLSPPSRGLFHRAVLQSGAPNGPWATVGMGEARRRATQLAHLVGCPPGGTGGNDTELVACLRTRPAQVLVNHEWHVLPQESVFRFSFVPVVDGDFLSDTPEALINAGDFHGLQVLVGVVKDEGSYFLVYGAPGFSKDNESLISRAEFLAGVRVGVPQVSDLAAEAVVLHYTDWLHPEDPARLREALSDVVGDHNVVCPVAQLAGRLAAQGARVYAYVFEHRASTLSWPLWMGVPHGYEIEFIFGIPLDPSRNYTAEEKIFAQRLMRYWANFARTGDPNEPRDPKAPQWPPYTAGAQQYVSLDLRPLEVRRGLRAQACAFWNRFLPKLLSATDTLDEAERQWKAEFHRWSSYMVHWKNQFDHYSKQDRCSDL

Structure (SMILES) | IC50 (Acetylcholinesterase [1]) | inhibition (Acetylcholinesterase [2]) | IC50 (Cholinesterase)
COc1cc2occ(-c3cccc(CN(C)Cc4ccccc4)c3)c(=O)c2cc1OC | 2.02 µM | – | –
COc1ccccc1CN(C)Cc1ccc(-c2cc3cc(OC)c(OC)cc3oc2=O)cc1 | 0.0621 µM | 15% | 52.9 µM
COc1ccc2c(=O)cc(-c3ccc(CN(C)Cc4ccccc4)cc3)oc2c1 | 80.5 µM | – | –
COc1cc2cc(-c3ccc(C[N+](C)(C)Cc4ccccc4)cc3)c(=O)oc2cc1OC | 0.0105 µM | – | 43.8 µM
COc1cc2cc(-c3ccc(CN(C)Cc4ccccc4)cc3)c(=O)oc2cc1OC | – | 35% | –
COc1ccc2cc(-c3cccc(CN(C)Cc4ccccc4)c3)c(=O)oc2c1 | 2.29 µM | – | –
CCN(Cc1ccccc1)Cc1ccc(-c2cc3cc(OC)c(OC)cc3oc2=O)cc1 | 0.0183 µM | 38% | –
CN(Cc1ccccc1)Cc1ccc(-c2cc3cc([N+](=O)[O-])ccc3oc2=O)cc1 | 0.148 µM | < 5% | –
COc1ccc2oc(=O)c(-c3cccc(CN(C)Cc4ccccc4)c3)cc2c1 | 0.303 µM | – | 136 µM
COc1cc2cc(-c3ccc(CN(C)Cc4ccccc4C)cc3)c(=O)oc2cc1OC | 0.366 µM | – | –
COc1ccc(CN(C)Cc2ccc(-c3cc4cc(OC)c(OC)cc4oc3=O)cc2)cc1 | 2.26 µM | – | –
CN(Cc1ccccc1)Cc1ccc(-c2cc3cc(N)ccc3oc2=O)cc1 | 0.281 µM | < 5% | –
COc1cc2occ(-c3ccc(CN(C)Cc4ccccc4)cc3)c(=O)c2cc1OC | 1.23 µM | – | –
COc1cccc(CN(C)Cc2ccc(-c3cc4cc(OC)c(OC)cc4oc3=O)cc2)c1 | 0.714 µM | – | –
COc1cc2cc(-c3ccc(CN(C)Cc4cccc([N+](=O)[O-])c4)cc3)c(=O)oc2cc1OC | 0.368 µM | – | –
COc1cc2cc(-c3ccc(CN(CCO)Cc4ccccc4)cc3)c(=O)oc2cc1OC | 0.0493 µM | 6% | 35.1 µM
COc1cc2cc(-c3ccc(CN(C)Cc4ccccc4[N+](=O)[O-])cc3)c(=O)oc2cc1OC | 0.987 µM | – | –
COc1cc2cc(-c3ccc(CN(C)Cc4ccc(C)cc4)cc3)c(=O)oc2cc1OC | 0.31 µM | – | –
COc1ccc2oc(-c3ccc(CN(C)Cc4ccccc4)cc3)cc(=O)c2c1 | 18.1 µM | – | 88.9 µM
COc1ccc2oc(=O)c(-c3ccc(CN(C)Cc4ccccc4)cc3)cc2c1 | 0.163 µM | < 5% | 1300 µM
COc1cc2oc(-c3cccc(CN(C)Cc4ccccc4)c3)cc(=O)c2cc1OC | 2.27 µM | – | –
COc1cc2cc(-c3ccc(CN(C)Cc4cccc(C)c4)cc3)c(=O)oc2cc1OC | 0.122 µM | – | –
COc1cc2cc(-c3cccc(CN(C)Cc4ccccc4)c3)c(=O)oc2cc1OC | 0.202 µM | 25% | 279 µM
COc1ccc2cc(-c3ccc(CN(C)Cc4ccccc4)cc3)c(=O)oc2c1 | 0.892 µM | < 5% | 570 µM
CCN(Cc1ccccc1)Cc1cccc(-c2coc3cc(OC)c(OC)cc3c2=O)c1 | 1.59 µM | – | –
COc1cc2oc3cc(CN(C)Cc4ccccc4)ccc3c(=O)c2cc1OC | 30.3 µM | – | –
